In patent US20230026696A1, “TRPV4 RECEPTOR LIGANDS” (UNIVERSITY OF UTAH RESEARCH FOUNDATION, priority 2019, published 2023):
pIC50: −log10 of the molar value.

What was measured:
human TRPV4 = molecular target: T1, human TRPV4 (Homo sapiens, UniProt Q9HBA0); assay: Fluorometric cell-based Ca2+ flux assay, HEK-293 cells stably overexpressing human TRPV4; details: for pIC50: HEK-293 stably overexpressing human TRPV4, agonist GSK1016790A 30 nM
T1 construct: expressed in transfected cells
How it was run: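 HEK-293 cells stably overexpressing human TRPV4, Fluo 4-loaded, pre-incubated 30 min at 37° C with compound, then stimulated with 30 nM GSK1016790A (final). Max ΔF/s over 1 min, media-corrected, expressed relative to no-antagonist control; IC50 from ≥8 concentrations, ≥3 replicates.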

[1] = system: intraocular pressure (IOP); assay: In vivo tonometric IOP assay in microbead mouse model of ocular hypertension; details: for IOP after single topical application: 1 μM and 10 μM, comparable to 0.5% timolol; for IOP after topical administration / protection of RGCs: mouse model of ocular hypertension, compounds 1 μM and 10 μM, timolol 0.5%; for IOP after topical administration: FIG. 1; for protection of RGCs: topical
TRPV1 = molecular target: T2, TRPV1 (Homo sapiens, UniProt Q8NER1); assay: Selectivity Ca2+ flux assay, TRPV1 stably overexpressed in human lung epithelial (BEAS-2B) cells; format: cell-based; details: agonist nonivamide (5 μM)
T2 construct: expressed in transfected cells
Description: (§1) To determine selectivity of the various test compounds for TRPV4, select compounds with activity in the TRPV4 fluorometric cell-based Ca^2+ flux assays were also tested for inhibition of human TRPA1 stably over-expressed in HEK-293 cells, TRPM8 stably over-expressed in HEK-293 cells, TRPV3 stably over-expressed in HEK-293 cells, and TRPV1 stably overexpressed in human lung epithelial (BEAS-2B) cells. The assays were conducted substantially as described above for HEK-293 cells that stably overexpress TRPV4, although for TRPV1, the BEAS-2B cells were maintained in LHC-9 media containing Geneticin (300 μg/mL) and were loaded with Fluo-4AM at room temperature. The agonist for TRPA1 was 2,4-ditert butylphenol (50 μM), for TRPM8 was icilin (50 μM), for TRPV3 was carvacrol (300 μM), and for TRPV1 was nonivamide (5 μM). All other aspects of the assay described above were the same.

TRPM8 = molecular target: T3, TRPM8 (Homo sapiens, UniProt Q7Z2W7); assay: Selectivity Ca2+ flux assay, TRPM8 stably over-expressed in HEK-293 cells; format: cell-based; details: agonist icilin (50 μM)
T3 construct: expressed in transfected cells
Description: as §1

human TRPA1 = molecular target: T4, human TRPA1 (Homo sapiens, UniProt O75762); assay: Selectivity Ca2+ flux assay, TRPA1 stably over-expressed in HEK-293 cells; format: cell-based; details: agonist 2,4-ditert butylphenol (50 μM)
T4 construct: expressed in transfected cells
Description: as §1

T1 sequence (Q9HBA0 whole entry): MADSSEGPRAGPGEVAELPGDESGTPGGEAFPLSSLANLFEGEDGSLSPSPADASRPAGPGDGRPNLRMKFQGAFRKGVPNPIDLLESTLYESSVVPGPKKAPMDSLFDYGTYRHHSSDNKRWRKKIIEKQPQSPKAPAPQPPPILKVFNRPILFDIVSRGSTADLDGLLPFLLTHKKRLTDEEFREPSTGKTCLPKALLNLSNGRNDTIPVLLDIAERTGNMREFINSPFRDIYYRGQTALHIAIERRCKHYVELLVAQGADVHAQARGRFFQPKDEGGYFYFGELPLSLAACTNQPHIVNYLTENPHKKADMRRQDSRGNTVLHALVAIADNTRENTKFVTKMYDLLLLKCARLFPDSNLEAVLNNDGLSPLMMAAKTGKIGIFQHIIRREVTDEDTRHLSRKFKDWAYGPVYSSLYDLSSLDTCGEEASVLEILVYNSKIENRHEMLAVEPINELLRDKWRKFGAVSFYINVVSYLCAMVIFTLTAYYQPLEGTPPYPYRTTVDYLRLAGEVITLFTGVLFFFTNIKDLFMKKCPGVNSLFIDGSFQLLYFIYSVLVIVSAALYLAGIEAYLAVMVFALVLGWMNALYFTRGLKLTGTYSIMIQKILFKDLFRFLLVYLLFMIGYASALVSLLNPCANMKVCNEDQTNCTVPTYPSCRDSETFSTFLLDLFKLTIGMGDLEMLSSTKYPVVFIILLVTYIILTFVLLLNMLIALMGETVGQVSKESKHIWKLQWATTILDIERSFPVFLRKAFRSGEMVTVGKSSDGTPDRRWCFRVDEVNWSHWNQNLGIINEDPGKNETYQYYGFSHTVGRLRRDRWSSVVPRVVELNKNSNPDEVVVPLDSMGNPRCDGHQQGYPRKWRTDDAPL
T2 sequence (Q8NER1 whole entry): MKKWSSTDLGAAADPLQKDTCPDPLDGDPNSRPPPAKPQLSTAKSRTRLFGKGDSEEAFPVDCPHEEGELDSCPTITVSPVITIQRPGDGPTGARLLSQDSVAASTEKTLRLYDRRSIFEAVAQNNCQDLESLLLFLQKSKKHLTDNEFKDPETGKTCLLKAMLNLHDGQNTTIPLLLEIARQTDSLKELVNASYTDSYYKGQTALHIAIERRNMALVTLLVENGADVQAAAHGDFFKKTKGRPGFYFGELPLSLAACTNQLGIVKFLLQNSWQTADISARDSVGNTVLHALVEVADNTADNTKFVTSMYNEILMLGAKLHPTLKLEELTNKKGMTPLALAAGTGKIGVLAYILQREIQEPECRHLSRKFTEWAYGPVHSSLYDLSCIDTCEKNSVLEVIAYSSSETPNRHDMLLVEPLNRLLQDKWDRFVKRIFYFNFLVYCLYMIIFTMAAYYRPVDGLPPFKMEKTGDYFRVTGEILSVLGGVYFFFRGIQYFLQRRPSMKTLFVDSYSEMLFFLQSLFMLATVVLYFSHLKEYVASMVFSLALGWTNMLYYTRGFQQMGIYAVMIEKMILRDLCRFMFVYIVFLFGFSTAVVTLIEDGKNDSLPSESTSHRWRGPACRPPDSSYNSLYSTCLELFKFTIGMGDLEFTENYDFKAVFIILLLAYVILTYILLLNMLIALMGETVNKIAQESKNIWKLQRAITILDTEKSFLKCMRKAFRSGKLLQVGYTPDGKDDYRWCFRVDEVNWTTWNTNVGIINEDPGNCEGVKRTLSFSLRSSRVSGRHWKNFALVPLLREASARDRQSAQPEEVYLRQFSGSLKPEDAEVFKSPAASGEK
T3 sequence (Q7Z2W7 whole entry): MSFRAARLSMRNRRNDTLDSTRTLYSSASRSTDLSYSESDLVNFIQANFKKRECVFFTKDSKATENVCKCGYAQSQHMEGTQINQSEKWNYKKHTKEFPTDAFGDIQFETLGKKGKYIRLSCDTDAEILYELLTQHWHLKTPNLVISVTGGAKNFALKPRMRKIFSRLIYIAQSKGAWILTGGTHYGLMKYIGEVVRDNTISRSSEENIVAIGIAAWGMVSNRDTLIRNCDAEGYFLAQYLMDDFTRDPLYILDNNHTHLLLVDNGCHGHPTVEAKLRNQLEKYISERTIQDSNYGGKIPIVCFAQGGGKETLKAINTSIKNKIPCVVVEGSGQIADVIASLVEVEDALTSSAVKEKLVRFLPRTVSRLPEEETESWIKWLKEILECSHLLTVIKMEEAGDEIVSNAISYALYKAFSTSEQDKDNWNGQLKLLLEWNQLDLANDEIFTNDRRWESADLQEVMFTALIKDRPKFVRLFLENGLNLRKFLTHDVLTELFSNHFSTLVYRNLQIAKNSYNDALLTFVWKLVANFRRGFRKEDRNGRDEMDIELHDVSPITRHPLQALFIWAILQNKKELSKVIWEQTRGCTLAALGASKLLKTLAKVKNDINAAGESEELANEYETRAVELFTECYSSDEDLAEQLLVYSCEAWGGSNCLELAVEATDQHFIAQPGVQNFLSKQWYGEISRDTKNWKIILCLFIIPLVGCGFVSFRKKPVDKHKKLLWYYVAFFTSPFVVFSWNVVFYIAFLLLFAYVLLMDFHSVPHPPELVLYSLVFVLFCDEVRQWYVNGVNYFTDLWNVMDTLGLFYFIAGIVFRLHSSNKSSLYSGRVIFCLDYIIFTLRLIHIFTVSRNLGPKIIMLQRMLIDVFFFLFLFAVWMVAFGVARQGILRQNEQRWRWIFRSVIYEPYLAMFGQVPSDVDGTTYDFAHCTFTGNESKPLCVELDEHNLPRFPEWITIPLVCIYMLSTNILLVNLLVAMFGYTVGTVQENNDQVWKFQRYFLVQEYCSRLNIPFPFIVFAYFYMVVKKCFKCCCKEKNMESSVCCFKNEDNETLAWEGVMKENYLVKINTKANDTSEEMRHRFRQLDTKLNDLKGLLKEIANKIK
T4 sequence (O75762 whole entry): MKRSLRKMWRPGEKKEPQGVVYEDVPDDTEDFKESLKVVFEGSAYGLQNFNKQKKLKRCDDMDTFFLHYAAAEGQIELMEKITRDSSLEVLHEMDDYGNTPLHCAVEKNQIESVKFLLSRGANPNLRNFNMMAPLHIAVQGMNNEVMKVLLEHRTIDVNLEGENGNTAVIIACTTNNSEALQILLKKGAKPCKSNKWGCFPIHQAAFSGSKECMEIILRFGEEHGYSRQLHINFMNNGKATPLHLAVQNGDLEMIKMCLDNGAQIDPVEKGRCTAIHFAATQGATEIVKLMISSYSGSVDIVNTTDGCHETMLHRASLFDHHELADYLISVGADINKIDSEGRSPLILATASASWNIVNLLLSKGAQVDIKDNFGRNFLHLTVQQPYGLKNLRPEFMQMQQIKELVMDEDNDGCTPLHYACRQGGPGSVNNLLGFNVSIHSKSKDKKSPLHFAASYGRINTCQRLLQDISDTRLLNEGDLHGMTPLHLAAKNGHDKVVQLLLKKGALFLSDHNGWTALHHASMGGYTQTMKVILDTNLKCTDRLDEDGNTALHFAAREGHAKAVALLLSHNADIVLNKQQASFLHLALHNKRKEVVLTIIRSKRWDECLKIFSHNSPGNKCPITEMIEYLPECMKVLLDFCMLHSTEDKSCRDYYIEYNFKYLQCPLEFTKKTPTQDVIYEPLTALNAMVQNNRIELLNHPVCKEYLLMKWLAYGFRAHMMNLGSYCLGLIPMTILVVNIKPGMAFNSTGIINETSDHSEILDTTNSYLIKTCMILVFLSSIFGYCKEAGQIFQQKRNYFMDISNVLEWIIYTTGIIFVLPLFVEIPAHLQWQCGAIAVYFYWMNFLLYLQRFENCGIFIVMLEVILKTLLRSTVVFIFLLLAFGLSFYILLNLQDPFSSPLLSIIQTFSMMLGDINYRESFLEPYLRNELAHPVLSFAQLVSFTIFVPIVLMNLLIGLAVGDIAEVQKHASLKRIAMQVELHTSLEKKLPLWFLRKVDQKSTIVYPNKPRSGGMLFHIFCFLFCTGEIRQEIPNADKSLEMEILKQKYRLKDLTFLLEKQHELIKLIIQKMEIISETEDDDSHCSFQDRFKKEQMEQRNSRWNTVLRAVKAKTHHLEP

selectivity for TRPV4 versus TRPA1, TRPM8, TRPV3 and TRPV1 (human TRPV4; comparison of IC50 values) | SMILES | pIC50 (human TRPV4) | IOP after single topical application [1] | IOP after topical administration [1] | protection of RGCs [1] | pIC50 (TRPV1) | pIC50 (TRPM8) | pIC50 (human TRPA1)
substantially more selective for TRPV4 | N#Cc1ccc(OCC2(CO)CN(S(=O)(=O)c3ccc(Cl)cc3Cl)C2)cc1F [Compound 11, 4-((1-((2,4-Dichlorophenyl)sulfonyl)-3-(hydroxymethyl)azetidin-3-yl)methoxy)-2-fluorobenzonitrile] | 7.21 to 7.28 | effectively lower IOP | lowered the IOP | protected RGCs | 4.61 | 4.84 | 4.28
– | Cl.N#Cc1ccc(OCC2(N)CN(S(=O)(=O)c3ccc(Cl)cc3Cl)C2)cc1F [Compound 52, 4-((3-Amino-1-((2,4-dichlorophenyl)sulfonyl)azetidin-3-yl)methoxy)-2-fluorobenzonitrile hydrochloride salt] | 7.18 to 7.62 | effectively lower IOP | lowered the IOP | protected RGCs | 4.22 | 4.44 | 4.05
